Measured values from publication PMC10338474 (Nature Communications, 2023).
Values joined by “and” are separate entries in the source; they are usually repeats but may differ in a detail not shown here. Equal entries are not always repeated. “Also recorded” adds a separate entry of the source. Where two headings read alike, the source gives them in different places.

How the values were obtained:
arrhythmia in mice = settings: cited from earlier work
EPAC1^FL [1] = molecular target: T1, EPAC1^FL (Homo sapiens, UniProt O95398); experiment: Liposome flotation binding assay of EPAC1^FL
T1 construct: Human full-length EPAC1 (EPAC1^FL) was cloned into a pET28a vector (6xHis tag in N-terminus); made in house; host or cells: E. coli BL21 (DE3) pG-KJE8
T1 sequence (O95398 1-881 isoform O95398-3): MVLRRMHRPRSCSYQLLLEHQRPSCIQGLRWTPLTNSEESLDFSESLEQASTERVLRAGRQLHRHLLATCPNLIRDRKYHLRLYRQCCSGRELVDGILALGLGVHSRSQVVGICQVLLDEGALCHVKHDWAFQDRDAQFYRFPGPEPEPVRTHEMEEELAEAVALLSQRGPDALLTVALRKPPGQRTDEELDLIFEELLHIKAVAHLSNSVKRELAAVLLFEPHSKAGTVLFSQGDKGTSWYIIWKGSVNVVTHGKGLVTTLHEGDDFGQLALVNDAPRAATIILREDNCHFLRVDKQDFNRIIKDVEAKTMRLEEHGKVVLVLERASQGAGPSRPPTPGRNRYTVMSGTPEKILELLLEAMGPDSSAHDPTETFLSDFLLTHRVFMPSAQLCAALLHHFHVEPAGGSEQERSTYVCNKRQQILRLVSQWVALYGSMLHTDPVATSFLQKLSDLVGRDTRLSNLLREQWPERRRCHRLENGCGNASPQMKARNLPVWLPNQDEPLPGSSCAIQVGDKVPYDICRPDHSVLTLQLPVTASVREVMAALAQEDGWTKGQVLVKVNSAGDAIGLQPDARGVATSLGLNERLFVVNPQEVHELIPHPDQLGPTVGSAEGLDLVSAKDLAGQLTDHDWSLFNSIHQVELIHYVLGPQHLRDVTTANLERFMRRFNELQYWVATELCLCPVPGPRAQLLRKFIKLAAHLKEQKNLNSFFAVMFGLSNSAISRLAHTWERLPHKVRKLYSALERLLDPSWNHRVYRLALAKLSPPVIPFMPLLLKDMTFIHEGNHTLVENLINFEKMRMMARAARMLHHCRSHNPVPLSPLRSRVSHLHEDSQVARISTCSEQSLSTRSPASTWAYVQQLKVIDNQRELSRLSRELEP
Method: Liposomes were prepared as described in ref. [61] in a buffer containing 50 mM HEPES pH 7.4 and 120 mM potassium acetate. All liposomes contain phosphatidylethanolamine (PE) at 20% and other lipids as indicated, and are completed to 100% by phosphatidylcholine (PC). […] All liposomes were extruded through a 0.2-μm-pore size filter before use, and size distributions were checked by dynamic light scattering (DLS) on a DynaPro instrument (Wyatt). The binding of proteins to liposomes was assayed by liposome flotation as described in ref. [57]. […] 1/8 of the bottom and top fractions were analyzed by SDS-PAGE using Coomassie blue staining. Quantification of the intensity of the bands was done using Image Lab^TM v6.0 on a ChemiDoc MP Imaging System (Biorad).

EPAC1^α-CNB-GEF [2] = molecular target: EPAC1^α-CNB-GEF (Homo sapiens, UniProt O95398); settings: for Dmax (largest protein dimension): EPAC1^α-CNB-GEF with the single ligand (cAMP 1 mM/200 μM or CE3F4 100 μM racemic mix)
Method: All small angle X-ray scattering (SAXS) data were obtained from size exclusion chromatography-SAXS (SEC-SAXS) experiments on the SWING beamline (SOLEIL synchrotron, France), using the EPAC1^α-CNB-GEF construct. EPAC1 was used at a concentration of 60 μM to obtain high SAXS intensities. Samples were injected on high-performance liquid chromatography (HPLC) size exclusion column (BioSEC-3 300 Å, Agilent Technologies, Inc.) equilibrated with the elution buffer (20 mM Tris-HCl pH 8.0, 150 mM NaCl, 0.5 mM EDTA). […] Data reduction to absolute units, frame averaging, and subtraction were done using the FOXTROT program suite (SOLEIL synchrotron). Frames corresponding to the high-intensity fractions of the peak and having a constant radius of gyration (Rg) within error were averaged. […] Rg values were evaluated by Guinier Wizard using the data within the range of Guinier approximation sRg < 1.3 and by Distance Distribution Wizard, both of which are modules of the PRIMUS program. The maximum distance Dmax was estimated with PRIMUS and refined by trial and error with GNOM. The distance distribution functions were calculated with GNOM. SAXS profiles were compared with DATCMP (ATSAS suite).

EPAC1^α-CNB-GEF [3] = settings: cited from earlier work
[4] = system: Rap1 GTPase in cardiomyocytes; set-up: method as in PMID 23139415; settings: cited from earlier work
arrhythmia in rats = settings: cited from earlier work
[5] = system: isolated CNB domain of EPAC1; settings: NMR; without competing with cAMP; cited from earlier work
EPAC1^GEF = EPAC1^GEF (Homo sapiens, UniProt O95398); settings: cited from earlier work
[6] = molecular target: Rap1/EPAC1^α-CNB-GEF complex (Homo sapiens, UniProt O95398); settings: cAMP 1 mM, EDTA, DMSO
Method: EPAC1^α-CNB-GEF was used at 25 μM in all experiments. […] Proteins samples were injected into a 25 mL Superdex 200 gel filtration column (GE Healthcare) at 0.5 mL/min. Fractions were analyzed by SDS-PAGE.

EPAC1^FL [7] = molecular target: T1, EPAC1^FL; experiment: Nucleotide exchange kinetics assay (BODIPY-GDP dissociation from Rap1) with full-length EPAC1; assay type: biochemical; settings: for increase in affinity, PM liposomes vs solution: ratio of apparent KD
Method: Liposomes were added at 100 μM (total lipids).
Nonlinear regression based on a straight line model was performed with GraphPad Prism. EPAC1 pseudo first order catalytic efficiencies kcat/KM were deduced from the slopes of the curves, according to the Michaelis–Menten formalism. […] Nonlinear regression based on a sigmoidal model was performed with GraphPad Prism. KD and kmax were deduced from the EC50 and top values of the curves, respectively.

[8] = molecular target: CNB domain-containing EPAC1 constructs (Homo sapiens, UniProt O95398); settings: Supplementary Fig. 2c
Method: Liposomes were prepared as described in ref. [61] in a buffer containing 50 mM HEPES pH 7.4 and 120 mM potassium acetate. All liposomes contain phosphatidylethanolamine (PE) at 20% and other lipids as indicated, and are completed to 100% by phosphatidylcholine (PC). PM liposomes contain 48% PC, 20% PE, 10% phosphatidylserine (PS), 20% cholesterol, and 2% phosphatidylinositol-4,5-bisphosphate (PIP2). All liposomes were extruded through a 0.2-μm-pore size filter before use, and size distributions were checked by dynamic light scattering (DLS) on a DynaPro instrument (Wyatt). The binding of proteins to liposomes was assayed by liposome flotation as described in ref. [57]. […] 1/8 of the bottom and top fractions were analyzed by SDS-PAGE using Coomassie blue staining. Quantification of the intensity of the bands was done using Image Lab^TM v6.0 on a ChemiDoc MP Imaging System (Biorad).

EPAC1^CNB-GEF = EPAC1^CNB-GEF (Homo sapiens, UniProt O95398); settings: in solution; Supplementary Fig. 4d
Method: For kinetics assays, the Rap1 GTPase was loaded with BODIPY-FL-GDP (Jena Bioscience) prior to nucleotide exchange by incubating 50 μM Rap1 with 250 μM BODIPY-GDP and 10 mM EDTA for 30 min at room temperature. Nucleotide exchange was stopped by the addition of 75 mM MgCl2. Removal of excess nucleotides and buffer exchange were done on a PD SpinTrap G-25 (GE HealthCare Life Science). Nucleotide exchange kinetics were monitored by following the decay of BODIPY-GDP fluorescence upon replacement by GTP, using excitation and emission wavelengths of 485 and 530 nm, respectively. Measurements were carried out at 30 °C on a Cary Eclipse fluorimeter (Varian) under stirring in 800 μL cuvettes, or in microplate wells (150 μL) on a FLEXstation (Molecular Devices). […] Liposomes were added at 100 μM (total lipids). For kinetics in solution, kobs values were determined from a mono-exponential fit. […] In this case, kobs values corresponding to the fast component were used.

EPAC1 = settings: cited from earlier work

CC1CCc2c(cc(Br)c(F)c2Br)N1C=O (stereo not shown) [CE3F4]
arrhythmia (arrhythmia in mice): prevents
Binding (%) of EPAC1^FL to PM liposomes, DMSO set to 100% (EPAC1^FL [1]; Fig. 4f left, without cAMP, CE3F4 50 μM): 81%
Rg, Guinier analysis (EPAC1^α-CNB-GEF [2]; +cAMP +CE3F4): 33.41 Å
Rg, P(r) analysis (EPAC1^α-CNB-GEF [2]; +cAMP +CE3F4): 33.84 Å
Dmax (largest protein dimension) (EPAC1^α-CNB-GEF [2]): 114 Å
Rg, Guinier analysis (EPAC1^α-CNB-GEF [2]; single ligand): 32.58 Å
Rg, P(r) analysis (EPAC1^α-CNB-GEF [2]; single ligand): 32.86 Å
in vitro activation of Rap1 by EPAC1^α-CNB-GEF (EPAC1^α-CNB-GEF [3]): inhibits
activation of the Rap1 GTPase in cardiomyocytes [4]: efficiently inhibits
arrhythmia (arrhythmia in rats): prevents
binding to the isolated CNB domain [5]: binds
inhibition of the GEF domain of EPAC1 alone (EPAC1^GEF): does not inhibit

Nc1ncnc2c1ncn2[C@@H]1O[C@@H]2COP(=O)(O)O[C@H]2[C@H]1O [cAMP, cyclic adenosine monophosphate]
formation of the Rap1-EPAC1^α-CNB-GEF complex [6]: readily observed
increase in affinity, PM liposomes vs solution (EPAC1^FL [7]): 278 fold
effect of cAMP on binding of CNB domain-containing EPAC1 constructs to PM liposomes [8]: does not increase
effect of addition of cAMP on EPAC1^FL binding to PS-PIP2 liposomes with cholesterol (EPAC1^FL [1]; flotation assay, 1 mM cAMP): no discernible effect
effect of cAMP on intrinsic GEF activity of EPAC1^CNB-GEF (EPAC1^CNB-GEF): increased
Dmax (largest protein dimension) (EPAC1^α-CNB-GEF [2]): 130 Å
Rg, Guinier analysis (EPAC1^α-CNB-GEF [2]; single ligand): 34.91 Å
Rg, P(r) analysis (EPAC1^α-CNB-GEF [2]; single ligand): 35.53 Å

CO[C@@H]1[C@@H]2OP(=O)(O)OC[C@H]2O[C@H]1n1c(Sc2ccc(Cl)cc2)nc2c(N)ncnc21 [compound 007, 8-(4-chlorophenylthio)−2’-O-methyl-cAMP]
increase of kmax, PM liposomes vs solution (EPAC1^FL [7]): 12.3 fold and 12 fold
Kd (EPAC1^FL [7]; in solution, Supplementary Table 5 mean): 1.57 µM
increase in affinity, PM liposomes vs solution (EPAC1^FL [7]): 107 fold
maximal activity (kmax) compared to cAMP (EPAC1; in solution, in vitro): threefold; also recorded: three times higher
